Measured values: patent publication US20260317313A1, “DNA Polymerase Theta Inhibitors Containing Non-Saturated 5-Membered Heterocyclic Rings and Use Thereof” (Thomas Jefferson University, priority 2022, published 2026)

The compounds below were run against T1, recombinant human Polq polymerase domain (residues 1792-2590) (Homo sapiens, UniProt O75417) (assay: Cy5 fluorescence assay of Polq polymerase enzymatic activity). Settings: 5 nM Polq polymerase domain, 60 nM primer-template, 50 uM dNTPs, 37° C., 18 min, 2.5% DMSO, triplicate.
T1 sequence (O75417 1792-2590): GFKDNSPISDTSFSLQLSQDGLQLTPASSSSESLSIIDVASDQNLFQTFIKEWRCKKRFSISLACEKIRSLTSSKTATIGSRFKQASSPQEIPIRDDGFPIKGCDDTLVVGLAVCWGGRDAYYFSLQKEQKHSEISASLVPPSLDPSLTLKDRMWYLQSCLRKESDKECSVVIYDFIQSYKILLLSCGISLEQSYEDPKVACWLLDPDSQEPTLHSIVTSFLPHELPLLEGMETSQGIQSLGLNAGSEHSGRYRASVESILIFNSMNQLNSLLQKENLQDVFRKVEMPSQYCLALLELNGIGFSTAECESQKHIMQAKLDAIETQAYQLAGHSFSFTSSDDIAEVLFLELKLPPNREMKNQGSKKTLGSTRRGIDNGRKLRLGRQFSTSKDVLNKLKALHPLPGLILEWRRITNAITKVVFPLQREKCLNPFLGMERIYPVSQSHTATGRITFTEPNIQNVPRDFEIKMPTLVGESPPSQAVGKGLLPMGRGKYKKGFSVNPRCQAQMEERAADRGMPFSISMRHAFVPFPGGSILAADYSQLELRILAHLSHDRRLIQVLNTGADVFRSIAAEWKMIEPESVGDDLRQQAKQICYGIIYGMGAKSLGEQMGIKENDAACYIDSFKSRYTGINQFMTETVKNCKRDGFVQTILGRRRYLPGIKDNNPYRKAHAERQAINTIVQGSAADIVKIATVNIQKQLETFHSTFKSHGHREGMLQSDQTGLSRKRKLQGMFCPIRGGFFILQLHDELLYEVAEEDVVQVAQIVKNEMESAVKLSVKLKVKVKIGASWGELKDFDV
Format: biochemical
Procedure: The following Cy5 fluorescence assay was used to measure the ability of compounds to inhibit Polq polymerase domain in vitro. The fluorescent based assay was performed as follows: 60 nM of the pre-annealed primer-template containing a 5′ Cy5 fluorophore conjugated template strand (SEQ ID NO 6: 5′-/5Cy5/ […] GGACAG-3′), a downstream complementary oligo conjugated with a 3′ Blackhole quencher (SEQ ID NO 7: 5′-CTAAGCTCACAGTG/3IAbRQSp/-3′) and a primer strand (SEQ ID NO 8: 5′-CTGTCCTGCATGATG-3′) was mixed with 50 uM 2′-deoxyribonucleoside triphosphates (dNTPs), 0.1 mg/mL Bovine serum albumin (BSA), 0.01% NP-40, 10% glycerol, 1 mM dithiothreitol (DTT), 10 mM MgCl2, 25 mM TrisHCl pH 7.8 in the presence of 2.5% DMSO with or without various concentrations (7-point dilution series) of Polq small molecule inhibitors represented by Formula I at 37° C. in a volume of 40 μL.
With `CN(C(=O)Oc1c(-c2cn(CCO)nn2)cc(C(F)(F)F)cc1C(F)(F)F)c1ccc(F)cc1` [Example 1] the IC50 was 4.8 nM.

Same assay, conditions: 5 nM Polq polymerase domain, 60 nM primer-template, 50 uM dNTPs, 37° C., 18 min, 2.5% DMSO, triplicate; read-out: Polq IC50
In the case of `CN(C(=O)Oc1c(-c2cn(C3CC(O)C3)nn2)cc(C(F)(F)F)cc1C(F)(F)F)c1ccc(F)cc1` (stereo not drawn) [Example 17, 2-[1-(3-hydroxycyclobutyl)-1H-1,2,3-triazol-4-yl]-4,6-bis(trifluoromethyl)phenyl N-(4-fluorophenyl)-N-methylcarbamate], the IC50 is reported as 1.5 nM.
Compound `CC(C)(C)OC(=O)n1ccn(-c2cc(C(F)(F)F)cc(C(F)(F)F)c2OC(=O)N(CC#N)c2ccc(F)cc2)c1=O` [Example 19, tert-butyl 3-(2-{[(cyanomethyl)(4-fluorophenyl)carbamoyl]oxy}-3,5-bis(trifluoromethyl)phenyl)-2-oxo-2,3-dihydro-1H-imidazole-1-carboxylate] has an IC50 of 295 nM.
Compound `N#CCN(C(=O)Oc1c(-n2cc[nH]c2=O)cc(C(F)(F)F)cc1C(F)(F)F)c1ccc(F)cc1` [Example 20, 2-(2-oxo-2,3-dihydro-1H-imidazol-1-yl)-4,6-bis(trifluoromethyl)phenyl N-(cyanomethyl)-N-(4-fluorophenyl)carbamate] has an IC50 of 439 nM.
Work on `[2H]C([2H])([2H])N(C(=O)Cc1c(-c2cnn(C(=O)OC(C)(C)C)c2)cc(C(F)(F)F)cc1C(F)(F)F)c1ccc(F)cc1` [Example 22, Tert-butyl 4-(2-{[(4-fluorophenyl)(methyl-d3)carbamoyl]methyl}-3,5-bis(trifluoromethyl)phenyl)-1H-pyrazole-1-carboxylate] yielded an IC50 of 24.5 nM.

Same assay, conditions: Polq IC50, 5 nM Polq polymerase domain, 60 nM primer-template, 50 uM dNTPs, 37° C., 18 min, 2.5% DMSO, triplicate
`[2H]C([2H])([2H])N(C(=O)Oc1c(-c2cn(C3C[C@@H](O)[C@@H](O)C3)nn2)cc(C(F)(F)F)cc1C(F)(F)F)c1ccc(F)cc1` (mixture of isomers) [Example 12, 2-{1-[(3R,4S)-3,4-dihydroxycyclopentyl]-1H-1,2,3-triazol-4-yl}-4,6-bis(trifluoromethyl)phenyl N-(4-fluorophenyl)-(methyl-d3)carbamate (Racemate)] showed an IC50 of 2.2 nM.
`[2H]C([2H])([2H])N(C(=O)Oc1c(-c2cn(C3C[C@@H](O)[C@@H](O)C3)nn2)cc(C(F)(F)F)cc1C(F)(F)F)c1ccc(F)cc1` (mixture of isomers) [Example 13, 2-{1-[(3R,4S)-3,4-dihydroxycyclopentyl]-1H-1,2,3-triazol-4-yl}-4,6-bis(trifluoromethyl)phenyl N-(4-fluorophenyl)-(methyl-d3)carbamate (Racemate)] was tested, and the IC50 was 4.6 nM.
In the case of `CN(C(=O)Oc1c(-n2cc[nH]c2=O)cc(C(F)(F)F)cc1C(F)(F)F)c1ccc(F)cc1` [Example 2, 2-(2-oxo-2,3-dihydro-1H-imidazol-1-yl)-4,6-bis(trifluoromethyl)phenyl N-(4-fluorophenyl)-N-methylcarbamate], the IC50 is reported as 4 nM.
`CN(C(=O)Oc1c(-c2cn(CCCCC(=O)Nc3cccc4c3C(=O)N(C3CCC(=O)NC3=O)C4=O)nn2)cc(C(F)(F)F)cc1C(F)(F)F)c1ccc(F)cc1` (stereo not drawn) [Example 3, 2-(1-(5-((2-(2,6-dioxopiperidin-3-yl)-1,3-dioxoisoindolin-4-yl)amino)-5-oxopentyl)-1H-1,2,3-triazol-4-yl)-4,6-bis(trifluoromethyl)phenyl (4-fluorophenyl) (methyl)carbamate] gave an IC50 of 3.3 nM.
In the case of `CN(C(=O)Oc1c(-c2cn(CCCCCC(=O)Nc3cccc4c3C(=O)N(C3CCC(=O)NC3=O)C4=O)nn2)cc(C(F)(F)F)cc1C(F)(F)F)c1ccc(F)cc1` (stereo not drawn) [Example 4, 2-(1-(6-((2-(2,6-dioxopiperidin-3-yl)-1,3-dioxoisoindolin-4-yl)amino)-6-oxohexyl)-1H-1,2,3-triazol-4-yl)-4,6-bis(trifluoromethyl)phenyl (4-fluorophenyl) (methyl)carbamate], the IC50 is reported as 5.5 nM.
Compound `CN(C(=O)Oc1c(-c2cn(CCOCC(=O)Nc3cccc4c3C(=O)N(C3CCC(=O)NC3=O)C4=O)nn2)cc(C(F)(F)F)cc1C(F)(F)F)c1ccc(F)cc1` (stereo not drawn) [Example 5, 2-(1-(2-(2-((2-(2,6-dioxopiperidin-3-yl)-1,3-dioxoisoindolin-4-yl)amino)-2-oxoethoxy)ethyl)-1H-1,2,3-triazol-4-yl)-4,6-bis(trifluoromethyl)phenyl (4-fluorophenyl) (methyl)carbamate] has an IC50 of 4.6 nM.
For `CN(C(=O)Oc1c(-c2cn(CCOCCOCC(=O)Nc3cccc4c3C(=O)N(C3CCC(=O)NC3=O)C4=O)nn2)cc(C(F)(F)F)cc1C(F)(F)F)c1ccc(F)cc1` (stereo not drawn) [Example 6, 2-(1-(2-(2-(2-((2-(2,6-dioxopiperidin-3-yl)-1,3-dioxoisoindolin-4-yl)amino)-2-oxoethoxy)ethoxy)ethyl)-1H-1,2,3-triazol-4-yl)-4,6-bis(trifluoromethyl)phenyl (4-fluorophenyl)(methyl)carbamate], the IC50 was 4 nM.
With `CN(C(=O)Oc1c(-c2cn(CCCCCCCCC(=O)Nc3cccc4c3C(=O)N(C3CCC(=O)NC3=O)C4=O)nn2)cc(C(F)(F)F)cc1C(F)(F)F)c1ccc(F)cc1` (stereo not drawn) [Example 7, 2-(1-(9-((2-(2,6-dioxopiperidin-3-yl)-1,3-dioxoisoindolin-4-yl)amino)-9-oxononyl)-1H-1,2,3-triazol-4-yl)-4,6-bis(trifluoromethyl)phenyl (4-fluorophenyl) (methyl)carbamate] the IC50 was 5.8 nM.
In the case of `CN(C(=O)Oc1c(-c2cn(CCOCCOCCOCCOCC(=O)Nc3cccc4c3C(=O)N(C3CCC(=O)NC3=O)C4=O)nn2)cc(C(F)(F)F)cc1C(F)(F)F)c1ccc(F)cc1` (stereo not drawn) [Example 8, 2-(1-(14-((2-(2,6-dioxopiperidin-3-yl)-1,3-dioxoisoindolin-4-yl)amino)-14-oxo-3,6,9,12-tetraoxatetradecyl)-1H-1,2,3-triazol-4-yl)-4,6-bis(trifluoromethyl)phenyl (4-fluorophenyl) (methyl)carbamate], the IC50 is reported as 4.2 nM.
Work on `[2H]C([2H])([2H])N(C(=O)Oc1c(-n2cc[nH]c2=O)cc(C(F)(F)F)cc1C(F)(F)F)c1ccc(F)c(Cl)c1F` [Example 9, 2-(2-oxo-2,3-dihydro-1H-imidazol-1-yl)-4,6-bis(trifluoromethyl)phenyl 3-chloro-2,4-difluorophenyl(methyl-d3)carbamate] yielded an IC50 of 2.4 nM.
`[2H]C([2H])([2H])N(C(=O)Oc1c(-n2cc[nH]c2=O)cc(C(F)(F)F)cc1C(F)(F)F)c1ccc(F)cc1` [Example 10, 2-(2-oxo-2,3-dihydro-1H-imidazol-1-yl)-4,6-bis(trifluoromethyl)phenyl 4-fluorophenyl(methyl-d3)carbamate] showed an IC50 of 2.9 nM.
`CN(C(=O)Oc1c(-c2cn(C3CC(O)C3)nn2)cc(C(F)(F)F)cc1C(F)(F)F)c1ccc(F)cc1` (stereo not drawn) [Example 11, 2-[1-(3-hydroxycyclobutyl)-1H-1,2,3-triazol-4-yl]-4,6-bis(trifluoromethyl)phenyl N-(4-fluorophenyl)-N-methylcarbamate] was tested, and the IC50 was 2 nM.
With `CN(C(=O)Oc1c(-c2cn(CC3(O)CNC3)nn2)cc(C(F)(F)F)cc1C(F)(F)F)c1ccc(F)cc1` [Example 14, 2-{1-[(3-hydroxyazetidin-3-yl)methyl]-1H-1,2,3-triazol-4-yl}-4,6-bis(trifluoromethyl)phenyl N-(4-fluorophenyl)-N-methylcarbamate] the IC50 was 2.3 nM.
Compound `[2H]C([2H])([2H])N(C(=O)Oc1c(-c2cn(CC3(O)CNC3)nn2)cc(C(F)(F)F)cc1C(F)(F)F)c1ccc(F)cc1` [Example 15, 2-{1-[(3-hydroxyazetidin-3-yl)methyl]-1H-1,2,3-triazol-4-yl}-4,6-bis(trifluoromethyl)phenyl N-(4-fluorophenyl)-N-(methyl-d3)carbamate] has an IC50 of 1.9 nM.
`[2H]C([2H])([2H])N(C(=O)Oc1c(-c2cn(CC3(O)CNC3)nn2)cc(C(F)(F)F)cc1C(F)(F)F)c1ccc(F)c(Cl)c1F` [Example 16, 2-{1-[(3-hydroxyazetidin-3-yl)methyl]-1H-1,2,3-triazol-4-yl}-4,6-bis(trifluoromethyl)phenyl N-(3-chloro-2,4-difluorophenyl)-N-(methyl-d3)carbamate] gave an IC50 of 1.5 nM.
In the case of `[2H]C([2H])([2H])N(C(=O)Oc1c(-c2nnn[nH]2)cc(C(F)(F)F)cc1C(F)(F)F)c1ccc(F)cc1` [Example 21, 2-(1H-1,2,3,4-tetrazol-5-yl)-4,6-bis(trifluoromethyl)phenyl N-(4-fluorophenyl)-N-(methyl-d3)carbamate], the IC50 is reported as 3.2 nM.
